The source of these data is article PMC9221018, “Sulfonamide-Derived Dithiocarbamate Gold(I) Complexes Induce the Apoptosis of Colon Cancer Cells by the Activation of Caspase 3 and Redox Imbalance” (Biomedicines, 2022).

Data set [1] in a line: n-octanol-water distribution coefficient, shake-flask method. The following applies: n-octanol/buffered saline pH 7.4, shake-flask. The data set is classed as physicochemical. As for the experimental part:
The n-octanol−water coefficients of the complexes were determined using a shake-flask method, as reported previously. Briefly, 100 mL buffered-saline (0.15 M NaCl, 10 mM phosphate [PO4^3−] buffer, pH 7.4) and 100 mL n-octanol were shaken for 72 h. The addition of 1 mg of the complexes followed by the centrifugation and separation of both phases gave two solutions, which were analysed by UV absorbance spectroscopy to determine their concentration in each phase. The corresponding value of log P was defined as log{[compound(organic)]/[compound(aqueous)]}.

The test system of data set [2] is Caco-2 cells. As to the kind of experiment: MTT cytotoxicity assay in undifferentiated Caco-2 cells. The data set is classed as cell-based, human. How it is done: (§1) The human Caco-2 cell line (TC7 clone) was kindly provided by Dr. Edith Brot-Laroche (Université Pierre et Marie Curie-Paris 6, UMR S 872, Les Cordeliers, France). Human epithelial fibroblast cells (NHDF-Ad, Lonza®®, Porriño, Spain) were kindly provided by Dr. Gracia Mendoza (Aragon Health Research Institute, IIS Aragón, Spain). Caco-2 cells (passages 40–70) and fibroblasts (passages 10–30) were maintained in a humidified atmosphere of 5% CO2 at 37 °C and grown in medium following the method used by Quero et al.. The Caco-2 cells were sub-cultured in 25 cm^2 plastic flasks at a density of 1.2 × 10^4 cells/cm^2, while the fibroblasts were sub-cultured on 75 cm^2 plastic flasks at a density of 1 × 10^4 cells/cm^2. The culture medium was replaced every 2 days.
(§2) The gold complexes were diluted in dimethyl sulfoxide (DMSO) as a 10 mM stock solution, and then diluted in cell culture medium at the desired concentrations.
(§3) For the cytotoxicity screening assays, Caco-2 cells were seeded in 96-well plates at a density of 4 × 10^3 cells/well. The culture medium was replaced with medium containing the drug panel 24 h post-seeding, and the cells were incubated for 24, 48 and 72 h. […] In differentiated Caco-2 and fibroblasts, culture medium containing metal gold complexes was added 15 days post-seeding, and the cells were incubated for 72 h. The antiproliferative effect was measured using an MTT assay, as previously described by Mármol et al.. The absorbance at 540/620 nm was measured using a SPECTROstar Nano (BMG Labtech, Ortenberg, Germany). In order to determine the selectivity index (SI), the IC50 value of the differentiated Caco-2 cells was divided by IC50 value in undifferentiated Caco-2, obtaining the ratio of the normal/cancerous cells’ toxicity.

For data set [3], the system named is Human epithelial fibroblast cells (NHDF-Ad). As to the kind of experiment: MTT viability assay in human epithelial fibroblasts. The following applies: complexes at their IC50 (1 1.14 μM, 3 1.7 μM, 8 7.22 μM, 9 8.56 μM), 72 h. The data set is classed as cell-based. How it is done:
as §1, §2, §3

The subject of data set [4] is differentiated Caco-2 cells. As to the kind of experiment: MTT cytotoxicity assay in differentiated Caco-2 cells (healthy cell model). The data set is classed as cell-based, human. The conditions noted are these: for decrease of cell viability: complexes at their IC50 (1 1.14 μM, 3 1.7 μM, 8 7.22 μM, 9 8.56 μM), 72 h; for IC50: treatment for 72 h. As for the experimental part: as §1, §2, §3

[5] abbreviates: treatment for 72 h, read-out: IC50.
[6] abbreviates: 24 h incubation, read-out: IC50 24 h.
[7] abbreviates: 48 h incubation, read-out: IC50 48 h.
The mark [8] stands for this setting: 72 h incubation, read-out: IC50 72 h.

Read-outs that look alike come from different tables or passages of the source.

Regarding “[Au(S2CNHSO2-p-Me-C6H4)(PPh3)] [Complex 2]”, in data set [1], the “Log P7.4” value came out at 0.71. In data set [2] (setting [5]), the 50% inhibitory concentration (IC50) came out at 1.25 ± 0.35 µM.
`Cc1ccc(S(=O)(=O)NC(=S)[S][Au][PH](c2cccc(S(=O)(=O)[O-])c2)(c2cccc(S(=O)(=O)[O-])c2)c2cccc(S(=O)(=O)[O-])c2)cc1.[Na+].[Na+].[Na+]` [Complex 5, [Au(S2CNHSO2-p-Me-C6H4)(TPPTS)]]: in data set [1], the “Log P7.4” value is recorded as −0.78. Besides, the IC50 in data set [2] (setting [5]) was 31.8 ± 6.05 µM.
On to “[Au(S2CNHSO2-p-Me-C6H4)(IBnPropargyl)] [Complex 10]”, for which the IC50 in data set [2] (setting [5]) is 13.2 ± 3.34 µM.
As for `C#CCn1ccn(C)[c]1=[Au-].O=S(=O)(NC(=S)[S-])c1ccccc1` [Complex 7, [Au(S2CNHSO2C6H5)(IMePropargyl)]], the “Log P7.4” value in data set [1] is on record as 0.35. Besides, the IC50 in data set [2] (setting [5]) came to 33.3 ± 5.01 µM.
“[Au(S2CNHSO2-p-Cl-C6H4)(PPh3)] [Complex 3]”: in data set [1], the “Log P7.4” value turned out to be 0.91. In addition, the “decrease of cell viability” value in data set [3] and in data set [4] was “did not compromise the viability” throughout. The concentration for half-maximal inhibition (IC50) in data set [4] turned out to be 14.3 ± 0.19 µM; in data set [2] (setting [6]) it was 2.48 ± 0.14 µM; in data set [2] (setting [7]), 1.51 ± 0.1 µM; in data set [2] (setting [8]), 1.7 ± 0.15 µM; in data set [2] (setting [5]) it was 1.7 ± 0.15 µM.
[Au(S2CNHSO2C6H5)(TPPTS)] [Complex 4]: the “Log P7.4” value in data set [1] is listed as −0.40. Besides, the IC50 in data set [2] (setting [5]) stood at 46.7 ± 5.61 µM.
On to `C#CCn1ccn(Cc2ccccc2)[c]1=[Au-].O=S(=O)(NC(=S)[S-])c1ccccc1` [Complex 9, [Au(S2CNHSO2C6H5)(IBnPropargyl)]], for which, in data set [1], the “Log P7.4” value was 0.42. Besides, the “decrease of cell viability” value in data set [3] and in data set [4] was “approximately 39%” in each case. In addition, the IC50 in data set [4] was found to be 19.5 ± 2.64 µM; in data set [2] (setting [6]) it was 31.2 ± 6.85 µM; in data set [2] (setting [7]), 15.5 ± 1.89 µM; in data set [2] (setting [8]) it was 8.56 ± 1.68 µM; in data set [2] (setting [5]) it was 8.56 ± 1.68 µM.
As to “[Au(S2CNHSO2-p-Cl-C6H4)(TPPTS)] [Complex 6]”, the “Log P7.4” value in data set [1] is −0.83. Besides, the IC50 in data set [2] (setting [5]) worked out at 33.7 ± 2.74 µM.
